We go through 7 molecules from PubChem BioAssay (NCI).

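Where inhibition never reached the appropriate level, the endpoint shown equals the highest concentration tested. Otherwise, values were interpolated linearly from a five-concentration, 48-hour dose response in 96-well plates. The concentration for full growth arrest is given as TGI.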

Experiment in all cases: NCI-60 cell line screen, 48 h
The subject of assay [1] is OVCAR-8 ovarian.
For assay [2], the system named is DU-145 prostate.
Assay [3] has as its system IGROV1 ovarian.
Assay [4] relates to SK-MEL-5 melanoma.
In assay [5] the test system is MDA-MB-435.
The subject of assay [6] is SNB-19 CNS.
For assay [7], the system named is HOP-92 NSCLC.
In assay [8] the test system is HCT-116 colon.
Assay [9] deals with T-47D breast.
Assay [10] concerns MCF7 breast.
For assay [11], the system named is HCT-15 colon.
For assay [12], the system named is MDA-N.
Assay [13] relates to SK-OV-3 ovarian.
Assay [14] relates to NCI-H226 lung.
In assay [15] the test system is RPMI-8226 leukemia.
The test system of assay [16] is HS 578T breast.
Assay [17] has as its system BT-549 breast.
The subject of assay [18] is MALME-3M melanoma.
The subject of assay [19] is HOP-62 NSCLC.
The test system of assay [20] is UACC-257 melanoma.

`O=C1N=NC(=O)N1c1cc(C(F)(F)F)cc(C(F)(F)F)c1`: the TGI in [1] is 13.7 µM; in assay [2] it was > 40 µM; in assay [3], 14.8 µM; in assay [4], 7.62 µM; in assay [5], 33.2 µM; in assay [6] it was > 40.8 µM. Moreover, the TGI was 8.25 µM in [7]; 12.2 µM in [8]; > 30.2 µM in assay [9]; > 32.4 µM in assay [10]; 12 µM in assay [11]; 20.4 µM in assay [12]. The TGI in assay [13] is 16.2 µM; in assay [14] it was 12.4 µM; in assay [15], 22.1 µM; in assay [16], 20.8 µM; in [17] it was 12.9 µM; in [18], 14.2 µM. Also, the figures for the TGI in [19] and in [20] were 15 µM and 12.2 µM, respectively.

On to `Cn1c(=O)cc(N=Nc2ccc(Cl)c(Cl)c2)[nH]c1=O`, for which the TGI is 53 µM in assay [1]; > 100 µM in assay [2]; > 100 µM in assay [3]; > 100 µM in [4]; 40.5 µM in assay [5]; > 100 µM in assay [6]. The TGI is 80.4 µM in assay [7]; 59.6 µM in [8]; > 100 µM in assay [9]; 59.8 µM in [10]; 38.9 µM in [11]; 37.4 µM in [12]. Further, the TGI was > 100 µM in [13]; > 100 µM in [14]; 71.1 µM in assay [15]; 94 µM in assay [16]; 96.2 µM in assay [17]; 32.6 µM in assay [18]. The TGI in assay [19] is > 100 µM; in assay [20] it was 65.9 µM.

Take `Cc1ccc2c(c1)C(C1Cc3cccc(C)c3C1=O)OC2=O` (stereo not given): the TGI in assay [1], in assay [2], in assay [3], in assay [4], in assay [5] and in assay [6] was > 100 µM throughout. The TGI in assay [7], in assay [8], in assay [9], in assay [10], in assay [11] and in assay [12] was > 100 µM each time. Further, the TGI is > 100 µM in assay [13]; > 100 µM in [14]; 88.3 µM in [15]; > 100 µM in assay [16]; > 100 µM in assay [17]; > 100 µM in [18]. The TGI in [19] and in assay [20] was > 100 µM each time.

Consider `C/C(=N\Nc1nc2ccccc2s1)c1cnccn1`, for which the TGI in [1] is 5.86 µM; in assay [2], > 100 µM; in [3], 7.28 µM; in assay [4] it was 16 µM; in [5] it was > 100 µM; in [6], > 29.4 µM. Further, the TGI was > 28.3 µM in [7]; > 36.8 µM in assay [8]; > 100 µM in assay [9]; 20.2 µM in [10]; 18.2 µM in assay [11]; > 100 µM in assay [12]. Moreover, the TGI in assay [13] is > 27.7 µM; in assay [14], 1.38 µM; in assay [15], > 47.8 µM; in assay [16], 20 µM; in assay [17] it was > 100 µM; in [18] it was 43.7 µM. The values for the TGI in assay [19] and in assay [20] were > 54.8 µM and > 100 µM, respectively.

With `c1ccc2sc(C3(N4CCC5(CC4)OCCO5)CCCCC3)cc2c1`, the TGI in assay [1], in [2], in assay [3], in assay [4], in assay [5] and in assay [6] was > 100 µM in each case. The TGI in assay [7], in [8], in assay [9], in assay [10], in assay [11] and in [12] was > 100 µM throughout. Also, the TGI in assay [13], in [14], in assay [15], in [16], in [17] and in assay [18] was > 100 µM throughout. Moreover, the TGI in assay [19] and in [20] was > 100 µM each time.

With `CC1=NN(C(=O)CC(=O)Nc2cccc(C)c2)C(=O)C1N=Nc1ccc(S(=O)(=O)c2ccc(N=NC3C(=O)N(C(=O)CC(=O)Nc4cccc(C)c4)N=C3C)cc2)cc1` (stereo not given), the TGI in [1], in assay [2], in [3], in assay [4], in [5] and in [6] was > 100 µM in each case. In addition, the TGI in assay [7], in [8], in assay [9], in assay [10], in assay [11] and in assay [12] was > 100 µM in each case. The TGI in [13], in assay [14], in [15], in [16], in assay [17] and in assay [18] was > 100 µM in each case. Further, the TGI in assay [19] and in assay [20] was > 100 µM in each case.

Regarding `C=C(C)[C@@H]1CCC2=C[C@H](OC2=O)[C@@]2(C)C[C@@H]2C(=O)/C=C(/C)C(=O)[C@H]1OC(C)=O`, the TGI was > 68.6 µM in assay [1]; 21 µM in [2]; > 69.3 µM in assay [3]; 29.7 µM in [4]; > 65.2 µM in assay [5]; > 73.7 µM in assay [6]. Further, the TGI in [7] was > 93.3 µM; in [8], 20.3 µM; in assay [9], 26.1 µM; in [10] it was > 37.6 µM; in assay [11] it was > 55.7 µM; in assay [12], > 35.8 µM. Moreover, the TGI in [13] is > 84.7 µM; in assay [14], 58.3 µM; in assay [15] it was 23.5 µM; in assay [16] it was 88.6 µM; in assay [17] it was 27.4 µM; in [18] it was 29.8 µM. Further, the TGI in assay [19] was found to be 97.6 µM; in assay [20], 81.4 µM.
